Values after ≈ are worked out from the molar mass of the structure shown.
Columns and labels:
Format in all cases: cell-based
P. aeruginosa ATCC 27853 = assay: MIC, broth microdilution, P. aeruginosa ATCC 27853; conditions: for MIC: Pseudomonas aeruginosa, ATCC27853, P. aeruginosa ATCC 27853, Table 1, read-out: MIC
Description: The microbial strains used in this study were obtained from the collection of the Gause Institute of New Antibiotics. […] Storage was carried out in accordance with CLSI guidelines.
(§1) Activity was evaluated by determining the minimum inhibitory concentration (MIC) values using the microdilution method in Mueller–Hinton Broth (Beckton and Dickinson, Le Pont-de-Claix, France), in accordance with the standard procedure for assessing the antimicrobial susceptibility of microorganisms.
(§2) The analysis was conducted in 96-well microtiter plates (Medpolymer, Saint Petersburg, Russia). The bacterial inoculum was introduced within 15 min of preparation. […] Microbial growth in the presence of the tested compounds was compared to the growth control (without exposure to the test samples). The MIC was defined as the lowest concentration at which visible microbial growth was inhibited.
(§3) The MIC values of the reference strains were required to fall within the acceptable ranges specified in [30], provided that standard assay conditions were maintained.

[1] = system: E. coli JW5503 transformed with pJC27 plasmids; assay: Translation accuracy reporter (mutant β-galactosidase, X-Gal staining); conditions: 4a,b, 6a,b and tobramycin 50 mg/mL; streptomycin, kanamycin 5 mg/mL; rifampicin 1 mg/mL
Source text: It is known that tobramycin inhibits protein biosynthesis by the blocking of initiation and inducing translation errors. We have tested whether the new tobramycin derivatives 4a,b and 6a,b retain the ability to induce translation errors. This assay uses an E. coli strain with a plasmid construct that encodes beta-galactosidase in such a way that a functional protein is only synthesized in the presence of translation errors. If the mechanism of action of the antibiotic is related to the translation errors, we observe indigo blue staining along the edge of the inhibition zone because functional b-galactosidase degrades the substrate X-Gal. As a result, if the antibiotic causes translation errors, blue staining forms around the edge of the inhibition zone. […] According to this, an introduction at the 6″-position of the aminoalkylamino or guanidinoalkylamino residues of tobramycin retains an original mechanism of aminoglycoside’s antibacterial activity affecting the protein synthesis.
To qualitatively evaluate translation accuracy in the presence of antibiotics, E. coli JW5503 [34] (kanamycin resistance cassette removed as per) transformed with pJC27 plasmids was utilized. The plasmids encode the β-galactosidase gene containing a mutation in its active center (E537: GAA→GAC/GGG), alongside a control plasmid without the mutation. Active β-galactosidase synthesis could only occur if translation errors were introduced. Petri dishes (9 cm) containing 20 mL of solid LB agar (1.5%) supplemented with chloramphenicol (11.3 μg/mL) and X-Gal (80 μg/mL) were prepared. A secondary layer comprising 3.5 mL of LB agar (0.6%), supplemented with 11.3 μg/mL chloramphenicol and 0.5 mL of liquid culture (A600~1.0), was added and allowed to solidify. Antibiotics were applied to the plates in 1 μL aliquots at the following concentrations: 50 mg/mL for 4a, 4b, 6a, 6b, and tobramycin; 5 mg/mL for streptomycin and kanamycin; and 1 mg/mL for rifampicin. Plates were incubated at 37 °C for 18 h. […] Results were documented using a Samsung Galaxy Tab A71 camera.

E. coli ATCC 25922 = assay: MIC, broth microdilution, E. coli ATCC 25922; conditions: for MIC: Escherichia coli, ATCC25922, Table 1, read-out: MIC
Description: (§4) The microbial strains used in this study were obtained from the collection of the Gause Institute of New Antibiotics. […] Storage was carried out in accordance with CLSI guidelines. Prior to experimentation, the bacterial strains were revived from cryopreservation by inoculating them onto trypticase soy agar (Becton, Dickinson, France) and incubating at (36 ± 1) °C for 16–24 h. Individual morphologically homogeneous colonies were then suspended in sterile physiological saline, and the turbidity of the suspension was adjusted to 0.5 McFarland units using a DEN-1 spectrophotometer (Biosan, Riga, Latvia), which corresponds to a concentration of 1.5 × 10^8 CFU/mL.
(§5) The samples were dissolved in sterile distilled water or dimethyl sulfoxide (DMSO), depending on the physicochemical properties of the compounds under investigation, to a concentration of 10,000 µg/mL.
as §1, §2, §3

M. smegmatis ATCC 607 = assay: MIC, broth microdilution, M. smegmatis ATCC 607; conditions: Mycolicibacterium smegmatis, ATCC607, Table 1, read-out: MIC
Description: as §4, §5, §1, §2

Structure (SMILES)	MIC (P. aeruginosa ATCC 27853)	induction of translation errors (blue staining at edge of inhibition zone) [1]	MIC (E. coli ATCC 25922)	MIC (M. smegmatis ATCC 607)	MIC of control antibiotic (P. aeruginosa ATCC 27853; P. aeruginosa ATCC 27853, quality control, must fall in acceptable ranges of [30])	MIC of control antibiotic (E. coli ATCC 25922; quality control, must fall in acceptable ranges of [30])
NCCNC[C@H]1O[C@H](O[C@@H]2[C@@H](O)[C@H](O[C@H]3O[C@H](CN)[C@@H](O)C[C@H]3N)[C@@H](N)C[C@H]2N)[C@H](O)[C@@H](N)[C@@H]1O [Compound 4a, 6″-(2-Aminoethyamino)-6″-deoxytobramycin acetate]	1 µg/mL	caused a blue coloring of the bacterial lawn	0.5 µg/mL	0.125 µg/mL		
NCCCNC[C@H]1O[C@H](O[C@@H]2[C@@H](O)[C@H](O[C@H]3O[C@H](CN)[C@@H](O)C[C@H]3N)[C@@H](N)C[C@H]2N)[C@H](O)[C@@H](N)[C@@H]1O [Compound 4b, 6″-(3-Aminopropyl-1-amino)-6″-deoxytobramycin acetate]	8 µg/mL	caused a blue coloring of the bacterial lawn	1 µg/mL	0.125 µg/mL		
N=C(N)NCCCNC[C@H]1O[C@H](O[C@@H]2[C@@H](O)[C@H](O[C@H]3O[C@H](CN)[C@@H](O)C[C@H]3N)[C@@H](N)C[C@H]2N)[C@H](O)[C@@H](N)[C@@H]1O [Compound 6b, 6″-(3-Guanidinopropyl-1-amino)-6″-deoxytobramycin acetate]	2 µg/mL	caused a blue coloring of the bacterial lawn	2 µg/mL	0.25 µg/mL		
N=C(N)NCCNC[C@H]1O[C@H](O[C@@H]2[C@@H](O)[C@H](O[C@H]3O[C@H](CN)[C@@H](O)C[C@H]3N)[C@@H](N)C[C@H]2N)[C@H](O)[C@@H](N)[C@@H]1O [Compound 6a, 6″-(2-Guanidinoethylamino)-6″-deoxytobramycin acetate]	1 µg/mL	caused a blue coloring of the bacterial lawn	1 µg/mL	0.125 µg/mL		
NC[C@H]1O[C@H](O[C@H]2[C@H](O)[C@@H](O[C@H]3O[C@H](CO)[C@@H](O)[C@H](N)[C@H]3O)[C@H](N)C[C@@H]2N)[C@H](N)C[C@@H]1O [Tobramycin, tobramycin]	0.5 µg/mL (≈ 1.07 µM)	increase the misreading	0.25 µg/mL (≈ 0.535 µM)	0.06 µg/mL (≈ 0.128 µM)	0.25 to 1 µg/mL	0.25 to 1 µg/mL
